≈ marks a conversion by molar mass, not a printed value. Where two headings read alike, the source gives them in different places. Starred links: 1 amine or outer side, 2 acyl side, 3 side chain; linkers in the order of their positions; H or OH if unused. Positions of bridges follow the written chain, without caps; N, C: chain ends. Residues, ends and D or L forms follow the SMILES beside them. *: point of attachment. C18 diacid = O=C(O)CCCCCCCCCCCCCCCCC(=O)*; γGlu = O=C(O)[C@H](CCC(=O)[*:2])N[*:1]; AEEA = NCCOCCOCC(=O)O
What was measured:
[1] = Solubility of CNP compounds at pH 4.0 and pH 6.5; format: physicochemical
How it was run: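 Supernatant peptide concentration was quantified by CAD after overnight room-temperature equilibration of incompletely dissolved samples. Nominal loading was ≥4000-5000 nmol/mL. Media were pH 4.0 sodium acetate 5 mM/glycerol 250 mM, or pH 6.5 sodium phosphate 8 mM/glycerol 23 mg/mL reached by stepwise NaOH addition.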

[2] = PK of CNP compounds after i.v. and s.c. administration to rats; conditions: male, Sprague Dawley, in vivo, rat; for clearance: read-out: Cl (L/hr/kg), i.v. administration (converted); for bioavailability: s.c. bioavailability, read-out: F (%), s.c. administration
How it was run: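 Plasma exposure was quantified by protein precipitation and turboflow LC-MS/MS in SRM mode. Rats received either 100 nmol/kg intravenously or 300 nmol/kg subcutaneously, with sublingual blood taken at baseline and at points up to 72 h. Per-animal NCA gave clearance as Dose/AUCinf, and results are averaged over 4-6 animals.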

[3] = 5 mM sodium acetate, 250 mM glycerol, pH 4.0, room temperature, read-out: Solubility at pH 4.0
[4] = 8 mM sodium phosphate, 23 mg/mL glycerol, pH 6.5, room temperature, read-out: Solubility at pH 6.5
[5] = iv, i.v., about 100 nmol/kg, read-out: T½ (hr), i.v. administration (converted)
[6] = sc, s.c., about 300 nmol/kg, read-out: T½ (hr), s.c. administration (converted)

Structure (SMILES): CC[C@H](C)[C@@H]1NC(=O)[C@H](CCCNC(=N)N)NC(=O)[C@H](CC(=O)O)NC(=O)[C@H](CC(C)C)NC(=O)[C@@H]2CCCN2C(=O)[C@H](CC(C)C)NC(=O)CNC(=O)[C@H](Cc2ccccc2)NC(=O)[C@@H](NC(=O)CNC(=O)[C@H](CO)NC(=O)[C@H](CO)NC(=O)[C@H](CC(C)C)NC(=O)CNC(=O)[C@H](CCCCN)NC(=O)[C@H](CCCCN)NC(=O)[C@H](CCC(N)=O)NC(=O)[C@H](C)NC(=O)CNC(=O)[C@H](CCCCN)NC(=O)[C@H](Cc2ccc(O)cc2)NC(=O)[C@H](CCCCN)NC(=O)[C@H](CCCNC(=N)N)NC(=O)[C@H](C)NC(=O)[C@H](CCC(N)=O)NC(=O)[C@@H]2CCCN2C(=O)[C@H](Cc2c[nH]cn2)NC(=O)[C@H](CCC(=O)O)NC(=O)[C@H](CCC(N)=O)NC(=O)CC[C@H](NC(=O)CC[C@H](NC(=O)CC[C@H](NC(=O)CC[C@H](NC(=O)CCCCCCCCCCCCCCCCC(=O)O)C(=O)O)C(=O)O)C(=O)O)C(=O)O)CSSC[C@@H](C(=O)O)NC(=O)CNC(=O)[C@H](CC(C)C)NC(=O)CNC(=O)[C@H](CO)NC(=O)[C@H](CC(C)C)NC(=O)[C@H](CO)NC(=O)CNC1=O [compound 1389] ({C18 diacid-γGlu-γGlu-γGlu-γGlu}-QEHPQARKYKGAQKKGLSSGCFGLPLDRIGSLSGLGC-OH; disulfide 21-37)
- solubility [1, 3]: 8900 µM (≈ 41800 µg/mL)
- solubility [1, 4]: 426 µM (≈ 2000 µg/mL)
- clearance ([2]; iv, i.v., about 100 nmol/kg): 0.00415 L/h/kg
- half-life [2, 5]: 14.6 h

Structure (SMILES): CC[C@H](C)[C@@H]1NC(=O)[C@H](CCCNC(=N)N)NC(=O)[C@H](CC(=O)O)NC(=O)[C@H](CC(C)C)NC(=O)[C@@H]2CCCN2C(=O)[C@H](CC(C)C)NC(=O)CNC(=O)[C@H](Cc2ccccc2)NC(=O)[C@@H](NC(=O)CNC(=O)[C@H](CO)NC(=O)[C@H](CO)NC(=O)[C@@H](NC(=O)CNC(=O)[C@@H](NC(=O)[C@H](CCCCN)NC(=O)[C@H](CCC(N)=O)NC(=O)[C@H](C)NC(=O)CNC(=O)[C@H](Cc2c[nH]cn2)NC(=O)[C@H](Cc2ccc(O)cc2)NC(=O)[C@H](CCCCN)NC(=O)[C@H](CCCNC(=N)N)NC(=O)[C@H](C)NC(=O)COCCOCCNC(=O)COCCOCCNC(=O)CC[C@H](NC(=O)CC[C@H](NC(=O)CCCCCCCCCCCCCCCCC(=O)O)C(=O)O)C(=O)O)[C@@H](C)O)C(C)C)CSSC[C@@H](C(=O)O)NC(=O)CNC(=O)[C@H](CC(C)C)NC(=O)CNC(=O)[C@H](CO)NC(=O)[C@H](CC(C)C)NC(=O)[C@H](CO)NC(=O)CNC1=O [compound 1354] ({C18 diacid-γGlu-γGlu-AEEA-AEEA}-ARKYHGAQKTGVSSGCFGLPLDRIGSLSGLGC-OH; disulfide 16-32)
- solubility [1, 4]: 440 µM (≈ 1800 µg/mL)
- clearance ([2]; iv, i.v., about 100 nmol/kg): 0.00652 L/h/kg
- half-life [2, 5]: 7.56 h

Structure (SMILES): CC[C@H](C)[C@@H]1NC(=O)[C@H](CCCNC(=N)N)NC(=O)[C@H](CC(=O)O)NC(=O)[C@H](CC(C)C)NC(=O)[C@@H]2CCCN2C(=O)[C@H](CC(C)C)NC(=O)CNC(=O)[C@H](Cc2ccccc2)NC(=O)[C@@H](NC(=O)CNC(=O)[C@H](CCCCN)NC(=O)[C@H](CO)NC(=O)[C@H](CC(C)C)NC(=O)CNC(=O)[C@H](CCCCN)NC(=O)[C@H](CCCCN)NC(=O)[C@H](CCC(N)=O)NC(=O)[C@H](C)NC(=O)CNC(=O)[C@H](CCC(=O)O)NC(=O)[C@H](Cc2ccc(O)cc2)NC(=O)COCCOCCNC(=O)COCCOCCNC(=O)COCCOCCNC(=O)COCCOCCNC(=O)CC[C@H](NC(=O)CCCCCCCCCCCCCCCCC(=O)O)C(=O)O)CSSC[C@@H](C(=O)O)NC(=O)CNC(=O)[C@H](CC(C)C)NC(=O)CNC(=O)[C@H](CO)NC(=O)[C@H](CC(C)C)NC(=O)[C@H](CO)NC(=O)CNC1=O [compound 1375] ({C18 diacid-γGlu-AEEA-AEEA-AEEA-AEEA}-YEGAQKKGLSKGCFGLPLDRIGSLSGLGC-OH; disulfide 13-29; C-terminus assumed)
- solubility [1, 4]: 3130 µM (≈ 12400 µg/mL)
- clearance ([2]; iv, i.v., about 100 nmol/kg): 0.0057 L/h/kg
- half-life [2, 5]: 9.66 h

Structure (SMILES): CC[C@H](C)[C@@H]1NC(=O)[C@H](CCCNC(=N)N)NC(=O)[C@H](CC(=O)O)NC(=O)[C@H](CC(C)C)NC(=O)[C@@H]2CCCN2C(=O)[C@H](CC(C)C)NC(=O)CNC(=O)[C@H](Cc2ccccc2)NC(=O)[C@@H](NC(=O)CNC(=O)[C@H](CCCCN)NC(=O)[C@H](CO)NC(=O)[C@@H](NC(=O)CNC(=O)[C@@H](NC(=O)[C@H](Cc2c[nH]cn2)NC(=O)[C@H](CCC(N)=O)NC(=O)[C@H](C)NC(=O)CNC(=O)[C@H](Cc2c[nH]cn2)NC(=O)[C@H](Cc2ccc(O)cc2)NC(=O)[C@H](CCCCN)NC(=O)[C@H](CCCNC(=N)N)NC(=O)[C@H](C)NC(=O)COCCOCCNC(=O)COCCOCCNC(=O)CC[C@H](NC(=O)CC[C@H](NC(=O)CC[C@H](NC(=O)CCCCCCCCCCCCCCCCC(=O)O)C(=O)O)C(=O)O)C(=O)O)[C@@H](C)O)C(C)C)CSSC[C@@H](C(=O)O)NC(=O)CNC(=O)[C@H](CC(C)C)NC(=O)CNC(=O)[C@H](CO)NC(=O)[C@H](CC(C)C)NC(=O)[C@H](CO)NC(=O)CNC1=O [compound 1420] ({C18 diacid-γGlu-γGlu-γGlu-AEEA-AEEA}-ARKYHGAQHTGVSKGCFGLPLDRIGSLSGLGC-OH; disulfide 16-32)
- solubility [1, 4]: 1410 µM (≈ 6000 µg/mL)
- clearance ([2]; iv, i.v., about 100 nmol/kg): 0.00764 L/h/kg
- half-life [2, 5]: 8.34 h
- bioavailability ([2]; sc, about 300 nmol/kg): 49.7%
- half-life [2, 6]: 9.47 h

Structure (SMILES): CC[C@H](C)[C@@H]1NC(=O)[C@H](CCCNC(=N)N)NC(=O)[C@H](CC(=O)O)NC(=O)[C@H](CC(C)C)NC(=O)[C@@H]2CCCN2C(=O)[C@H](CC(C)C)NC(=O)CNC(=O)[C@H](Cc2ccccc2)NC(=O)[C@@H](NC(=O)CNC(=O)[C@H](CCC(N)=O)NC(=O)[C@H](CO)NC(=O)[C@H](CC(C)C)NC(=O)CNC(=O)[C@H](CCCCN)NC(=O)[C@H](CCCCN)NC(=O)[C@H](CCC(N)=O)NC(=O)[C@H](C)NC(=O)CNC(=O)[C@H](CCCCN)NC(=O)[C@H](Cc2ccc(O)cc2)NC(=O)[C@H](CCCCN)NC(=O)[C@H](CCCNC(=N)N)NC(=O)[C@H](C)NC(=O)COCCOCCNC(=O)COCCOCCNC(=O)COCCOCCNC(=O)COCCOCCNC(=O)CC[C@H](NC(=O)CC[C@H](NC(=O)CC[C@H](NC(=O)CC[C@H](NC(=O)CC[C@H](NC(=O)CCCCCCCCCCCCCCCCC(=O)O)C(=O)O)C(=O)O)C(=O)O)C(=O)O)C(=O)O)CSSC[C@@H](C(=O)O)NC(=O)CNC(=O)[C@H](CC(C)C)NC(=O)CNC(=O)[C@H](CO)NC(=O)[C@H](CC(C)C)NC(=O)[C@H](CO)NC(=O)CNC1=O [compound 9407] ({C18 diacid-γGlu-γGlu-γGlu-γGlu-γGlu-AEEA-AEEA-AEEA-AEEA}-ARKYKGAQKKGLSQGCFGLPLDRIGSLSGLGC-OH; disulfide 16-32)
- solubility [1, 4]: 6690 µM (≈ 32300 µg/mL)
- clearance ([2]; iv, i.v., about 100 nmol/kg): 0.00515 L/h/kg
- half-life [2, 5]: 15.2 h
- bioavailability ([2]; sc, about 300 nmol/kg): 37.2%
- half-life [2, 6]: 14.9 h

Structure (SMILES): CC[C@H](C)[C@@H]1NC(=O)[C@H](CCCNC(=N)N)NC(=O)[C@H](CC(=O)O)NC(=O)[C@H](CC(C)C)NC(=O)[C@@H]2CCCN2C(=O)[C@H](CC(C)C)NC(=O)CNC(=O)[C@H](Cc2ccccc2)NC(=O)[C@@H](NC(=O)CNC(=O)[C@H](CO)NC(=O)[C@H](CO)NC(=O)[C@H](CC(C)C)NC(=O)CNC(=O)[C@H](CCCCN)NC(=O)[C@H](CCCCN)NC(=O)[C@H](CCC(N)=O)NC(=O)[C@H](C)NC(=O)CNC(=O)[C@H](CCCCN)NC(=O)[C@H](Cc2ccc(O)cc2)NC(=O)[C@H](CCCCN)NC(=O)[C@H](CCCNC(=N)N)NC(=O)[C@H](C)NC(=O)[C@H](CCC(N)=O)NC(=O)[C@@H]2CCCN2C(=O)[C@H](Cc2c[nH]cn2)NC(=O)[C@H](CCC(=O)O)NC(=O)[C@H](CCC(N)=O)NC(=O)CC[C@H](NC(=O)CC[C@H](NC(=O)CC[C@H](NC(=O)CC[C@H](NC(=O)CC[C@H](NC(=O)CCCCCCCCCCCCCCCCC(=O)O)C(=O)O)C(=O)O)C(=O)O)C(=O)O)C(=O)O)CSSC[C@@H](C(=O)O)NC(=O)CNC(=O)[C@H](CC(C)C)NC(=O)CNC(=O)[C@H](CO)NC(=O)[C@H](CC(C)C)NC(=O)[C@H](CO)NC(=O)CNC1=O [compound 9482] ({C18 diacid-γGlu-γGlu-γGlu-γGlu-γGlu}-QEHPQARKYKGAQKKGLSSGCFGLPLDRIGSLSGLGC-OH; disulfide 21-37)
- solubility [1, 3]: 99 µM (≈ 478 µg/mL)
- solubility [1, 4]: 5320 µM (≈ 25700 µg/mL)
- clearance ([2]; iv, i.v., about 100 nmol/kg): 0.00549 L/h/kg
- half-life [2, 5]: 14.5 h
- bioavailability ([2]; sc, about 300 nmol/kg): 71.5%
- half-life [2, 6]: 18.6 h

Structure (SMILES): CC[C@H](C)[C@@H]1NC(=O)[C@H](CCCNC(=N)N)NC(=O)[C@H](CC(=O)O)NC(=O)[C@H](CC(C)C)NC(=O)[C@@H]2CCCN2C(=O)[C@H](CC(C)C)NC(=O)CNC(=O)[C@H](Cc2ccccc2)NC(=O)[C@@H](NC(=O)CNC(=O)[C@H](CO)NC(=O)[C@H](CO)NC(=O)[C@H](CC(C)C)NC(=O)CNC(=O)[C@H](CCCCN)NC(=O)[C@H](CCCCN)NC(=O)[C@H](CCC(N)=O)NC(=O)[C@H](C)NC(=O)CNC(=O)[C@H](CCCCN)NC(=O)[C@H](Cc2ccc(O)cc2)NC(=O)[C@H](CCCCN)NC(=O)[C@H](CCCNC(=N)N)NC(=O)[C@H](C)NC(=O)CC[C@H](NC(=O)CC[C@H](NC(=O)CC[C@H](NC(=O)CC[C@H](NC(=O)CCCCCCCCCCCCCCCCC(=O)O)C(=O)O)C(=O)O)C(=O)O)C(=O)O)CSSC[C@@H](C(=O)O)NC(=O)CNC(=O)[C@H](CC(C)C)NC(=O)CNC(=O)[C@H](CO)NC(=O)[C@H](CC(C)C)NC(=O)[C@H](CO)NC(=O)CNC1=O [compound 1386] ({C18 diacid-γGlu-γGlu-γGlu-γGlu}-ARKYKGAQKKGLSSGCFGLPLDRIGSLSGLGC-OH; disulfide 16-32)
- solubility [1, 4]: 490 µM (≈ 2000 µg/mL)
- clearance ([2]; iv, i.v., about 100 nmol/kg): 0.00605 L/h/kg
- half-life [2, 5]: 8.16 h
